US12673946B2, “Pyrimidin-4(3H)-one derivatives as TRPV4 antagonists” (RaQualia Pharma Inc., priority 2020, dated 2026)
pIC50: −log10 of the molar value.

Target: T1, human TRPV4 (Homo sapiens, UniProt Q9HBA0)
T1 construct: host or cells: tetracycline-inducible Flp-In T-REx 293 cells
Experiment: Hypotonicity-induced Ca2+ influx (Fluo-4, FDSS)
Type: cell-based
Method: Hypotonicity-Induced Ca^2+ Influx
TRPV4 channel activation/opening results in an influx of Ca^2+ (Liedtke, W. et al., 2000 (NPL 1)). The resulting changes in intracellular calcium are monitored using a Ca^2+ sensitive fluorescent dye Fluo-4 (Invitrogen). Dye loaded cells are treated with the test compounds for 5 minutes prior to the addition of a hypotonic solution and the inhibition of the hypotonicity-induced activation is recorded.
Forty microL of tetracycline-inducible Flp-In T-REx 293 cells (Invitrogen) stably expressing human TRPV4 are seeded onto the poly-D-lysine coated 384-well plate (Corning) at a density of 10,000 cells per well. The following day, TRPV4 expression is induced by adding 0.5 microg/mL tetracycline for 20-24 hours. On the day of the experiment, the media is removed and replaced with 40 microL of dye loading buffer [1 microM Fluo-4 AM (Invitrogen), 0.01% Pluronic F-127, and 20 mM HEPES in Hanks' balanced salt solutions (HBSS; Invitrogen)] and then the cells are incubated for 60 minutes at 25° C. Dye is then removed and replaced with 20 microL of assay buffer (20 mM HEPES in HBSS). Five minutes prior to the fluorescence measurement, 10 microL of test compound is added to the cells. Using the FDSS instrument (Hamamatsu Photonics), 30 microL of hypotonic solution (90 mM D-mannitol and 1.26 mM CaCl2 in ultrapure water) is added 30 seconds after the start of measurement. The calcium flux signal is recorded for a total of 4.5 minutes.

[1] = Flp-In T-REx 293 cells expressing human TRPV4, examples listed under heading 'Human IC50<50 nM'
[2] = Flp-In T-REx 293 cells stably expressing human TRPV4, compounds listed by potency bin (<10 nM Tables 96-1/96-2, <3 nM Table 97)

T1 sequence (Q9HBA0 whole entry): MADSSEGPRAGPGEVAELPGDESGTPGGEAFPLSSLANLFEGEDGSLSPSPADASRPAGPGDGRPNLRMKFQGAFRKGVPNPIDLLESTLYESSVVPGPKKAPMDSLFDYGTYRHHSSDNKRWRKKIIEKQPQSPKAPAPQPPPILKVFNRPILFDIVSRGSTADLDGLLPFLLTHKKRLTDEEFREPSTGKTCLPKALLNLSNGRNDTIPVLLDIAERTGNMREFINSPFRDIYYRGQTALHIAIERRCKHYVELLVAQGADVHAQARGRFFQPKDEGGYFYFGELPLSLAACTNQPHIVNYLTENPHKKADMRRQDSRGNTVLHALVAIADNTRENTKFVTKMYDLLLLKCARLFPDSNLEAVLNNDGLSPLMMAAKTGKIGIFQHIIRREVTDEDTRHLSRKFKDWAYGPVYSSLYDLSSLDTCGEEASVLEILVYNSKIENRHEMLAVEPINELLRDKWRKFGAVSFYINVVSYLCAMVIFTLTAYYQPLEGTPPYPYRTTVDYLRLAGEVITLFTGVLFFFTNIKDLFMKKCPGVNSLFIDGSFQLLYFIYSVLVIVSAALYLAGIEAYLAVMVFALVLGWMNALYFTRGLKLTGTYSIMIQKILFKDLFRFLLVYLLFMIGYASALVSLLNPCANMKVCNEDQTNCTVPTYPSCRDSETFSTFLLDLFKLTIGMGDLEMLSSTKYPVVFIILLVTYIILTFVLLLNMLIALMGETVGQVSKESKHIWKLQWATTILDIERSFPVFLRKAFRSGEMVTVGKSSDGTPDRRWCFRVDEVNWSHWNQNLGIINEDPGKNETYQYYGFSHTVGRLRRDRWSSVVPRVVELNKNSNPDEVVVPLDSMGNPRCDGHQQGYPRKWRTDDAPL

Structure (SMILES)	pIC50 [1]	pIC50 [2]
COCCCc1csc(C2(c3nc4c(c(=O)[nH]3)CN(C(=O)[C@H](O)c3cccc(C(F)(F)F)c3)CCC4)CC2)c1 [30-10]	> 7.30	> 8.00
O=C(Cc1cccc(-c2cccc(C(F)(F)F)c2)c1)N1CCCc2nc(C3(c4cc(-c5ccccc5)cs4)CC3)[nH]c(=O)c2C1 [18-28]	> 7.30	> 8.00
O=C([C@H](O)c1cccc(C(F)(F)F)c1)N1CCc2nc(C3(c4cccc(C5CCCC5)c4)CC3)[nH]c(=O)c2C1 [27-2]	> 7.30	> 8.00
N#Cc1ccc(-c2cccc(C3(c4nc5c(c(=O)[nH]4)CN(C(=O)[C@H](O)c4cccc(C(F)(F)F)c4)CCC5)CC3)c2)cc1C#N [42-68]	> 7.30	> 8.00
CC(C)Oc1ccc(-c2cccc(C(O)C(=O)N3CCc4nc(C5(c6ccccc6)CC5)[nH]c(=O)c4C3)c2)cc1 (stereo not shown) [44-38]	> 7.30	–
O=C(Cc1ccccc1Oc1ccccc1)N1CCCc2nc(C3(c4ccccc4)CC3)[nH]c(=O)c2C1 [17-143]	> 7.30	–
O=C(C(O)c1cccc(-c2cccc(C(F)(F)F)c2)c1)N1CCc2nc(C3(c4cccc(F)c4)CC3)[nH]c(=O)c2C1 (stereo not shown) [14-6]	> 7.30	> 8.00
O=C([C@H](O)c1cccc(C(F)(F)F)c1)N1CCCc2nc(C3(c4cccc(-c5cccc(F)c5)c4)CC3)[nH]c(=O)c2C1 [42-58]	> 7.30	> 8.00
O=C([C@H](O)c1cccc(C(F)(F)F)c1)N1CCCc2nc(C3(c4cccc(C(F)(F)F)c4)CC3)[nH]c(=O)c2C1 [17-3]	> 7.30	> 8.52
O=C([C@H](O)c1cccc(-c2cc3ccccc3s2)c1)N1CCc2nc(C3(c4ccccc4)CC3)[nH]c(=O)c2C1 [44-95]	> 7.30	> 8.52
O=C(Cc1cccc(-c2cccc(Cl)c2)c1)N1CCCc2nc(C3(c4cccc(C5CCCCC5)c4)CC3)[nH]c(=O)c2C1 [31-16]	> 7.30	> 8.00
O=C(Cc1cccc(-c2cccc(C(F)(F)F)c2)c1)N1CCCc2c(nc(C3(c4ccccc4)CC3)[nH]c2=O)C1 [17-109]	> 7.30	–
CC(C)c1csc(C2(c3nc4c(c(=O)[nH]3)CN(C(=O)[C@H](O)c3cccc(Cl)c3)CC4)CC2)c1 [15-8]	> 7.30	> 8.00
O=C(C(O)c1cccc(-c2csc(Cl)c2)c1)N1CCc2nc(C3(c4ccccc4)CC3)[nH]c(=O)c2C1 (stereo not shown) [44-27]	> 7.30	–
CC(C)(C)c1cccc(-c2cccc([C@@H](O)C(=O)N3CCc4nc(C5(c6cccc(Cl)c6)CC5)[nH]c(=O)c4C3)c2)c1 [45-2]	> 7.30	> 8.00
O=C(C(O)c1cccc(-c2cc(Cl)cc(C(F)(F)F)c2)c1)N1CCc2nc(C3(c4ccccc4)CC3)[nH]c(=O)c2C1 (stereo not shown) [44-3]	> 7.30	> 8.00
O=C([C@H](O)c1cccc(C(F)(F)F)c1)N1CCCc2nc(C3(c4cccc(-c5ccc(N6CCC(c7ccccc7)CC6)nc5)c4)CC3)[nH]c(=O)c2C1 [42-87]	> 7.30	> 8.00
CC(C)c1csc(C2(c3nc4c(c(=O)[nH]3)CN(C(=O)C(F)(F)c3cccc(C(F)(F)F)c3)CC4)CC2)c1 [21-5]	> 7.30	> 8.00
O=C([C@H](O)c1cccc(Cl)c1)N1CCc2nc(C3(c4cccs4)CC3)[nH]c(=O)c2C1 [6-7]	> 7.30	–

Structure (SMILES)	pIC50 [1]	pIC50 [2]
O=C(C(O)c1cccc(-c2cccc(C(F)(F)F)c2)c1)N1CCc2nc(C3(c4cccs4)CC3)[nH]c(=O)c2C1 (stereo not shown) [15-6]	> 7.30	> 8.00
CC(C)c1cccc(C2(c3nc4c(c(=O)[nH]3)CN(C(=O)C(O)c3cccc(-c5cccc(OC(F)(F)F)c5)c3)CCC4)CC2)c1 (stereo not shown) [17-49]	> 7.30	–
CC(C)c1csc(C2(c3nc4c(c(=O)[nH]3)CN(C(=O)C(O)c3cccc(SC(F)(F)F)c3)CCC4)CC2)c1 (stereo not shown) [18-19]	> 7.30	> 8.00
O=C([C@H](O)c1cccc(C(F)(F)F)c1)N1CCc2nc(C3(c4cccc(C5CCOCC5)c4)CC3)[nH]c(=O)c2C1 [27-3]	> 7.30	> 8.00
O=C([C@H](O)c1cccc(C(F)(F)F)c1)N1CCCc2nc(C3(c4cccc(-c5cc(F)cc(F)c5)c4)CC3)[nH]c(=O)c2C1 [42-61]	> 7.30	> 8.00
Cc1csc(C2(c3nc4c(c(=O)[nH]3)CN(C(=O)[C@H](O)c3cccc(Cl)c3)CC4)CC2)c1 [6-20]	> 7.30	–
CN(C)c1ccc(-c2cccc(C3(c4nc5c(c(=O)[nH]4)CN(C(=O)[C@H](O)c4cccc(C(F)(F)F)c4)CCC5)CC3)c2)cn1 [42-13]	> 7.30	> 8.52
O=C(Cc1ccc(COc2ccccc2)cc1)N1CCN(c2ccc(-c3cccc(C4(c5nc6c(c(=O)[nH]5)CN(C(=O)[C@H](O)c5cccc(C(F)(F)F)c5)CCC6)CC4)c3)cn2)CC1 [42-90]	> 7.30	> 8.00
CN(C)S(=O)(=O)c1ccc(-c2cccc(C3(c4nc5c(c(=O)[nH]4)CN(C(=O)[C@H](O)c4cccc(C(F)(F)F)c4)CCC5)CC3)c2)cc1 [42-18]	> 7.30	> 8.00
O=C(Cc1ccccc1Oc1ccccc1)N1CCCc2nc(C3(c4cccc(Cl)c4)CC3)[nH]c(=O)c2C1 [17-139]	> 7.30	> 8.00
O=C(COc1ccc(-c2ccccc2)cc1)N1CCCc2nc(C3(c4cccc(Cl)c4)CC3)[nH]c(=O)c2C1 [17-102]	> 7.30	–
O=C(C(O)c1cccc(-c2ccc(Cl)c(F)c2)c1)N1CCc2nc(C3(c4ccccc4)CC3)[nH]c(=O)c2C1 (stereo not shown) [44-15]	> 7.30	> 8.00
Cc1ccc(-c2cccc(C(O)C(=O)N3CCc4nc(C5(c6ccccc6)CC5)[nH]c(=O)c4C3)c2)cc1 (stereo not shown) [44-56]	> 7.30	–
O=C([C@H](O)c1cccc(C(F)(F)F)c1)N1CCCc2nc(C3(c4cccc(-c5cnn(C6CCC6)c5)c4)CC3)[nH]c(=O)c2C1 [42-12]	> 7.30	> 8.52
O=C(C(O)c1cccc(-c2ccc(Cl)s2)c1)N1CCc2nc(C3(c4ccccc4)CC3)[nH]c(=O)c2C1 (stereo not shown) [44-30]	> 7.30	–
Cc1ccccc1-c1cccc(C2(c3nc4c(c(=O)[nH]3)CN(C(=O)[C@H](O)c3cccc(C(F)(F)F)c3)CCC4)CC2)c1 [42-60]	> 7.30	> 8.00
O=C([C@H](O)c1cccc(C(F)(F)F)c1)N1CCc2nc(C3(c4cc(-c5cccnc5)cs4)CC3)[nH]c(=O)c2C1 [36-2]	> 7.30	–
O=C(C(O)c1cccc(S(F)(F)(F)(F)F)c1)N1CCCc2nc(C3(c4cccc(Cl)c4)CC3)[nH]c(=O)c2C1 (stereo not shown) [17-27]	> 7.30	> 8.00

More lines, now with the values ahead:

pIC50 [1]	pIC50 [2]	Structure (SMILES)
> 7.30	> 8.00	CC(C)c1cccc(-c2cccc(CC(=O)N3CCCc4nc(C5(c6cccc(Cl)c6)CC5)[nH]c(=O)c4C3)c2)c1 [57-5]
> 7.30	> 8.00	CC(C)c1cncc(C2(c3nc4c(c(=O)[nH]3)CN(C(=O)C(O)c3cccc(-c5cccc(C(C)(C)C)c5)c3)CCC4)CC2)c1 (stereo not shown) [55-1]
> 7.30	> 8.00	O=C([C@H](O)c1cccc(-c2cc(Cl)cc(Cl)c2)c1)N1CCCc2nc(C3(c4ccccc4)CC3)[nH]c(=O)c2C1 [49-35]
> 7.30	> 8.00	O=C(N1CCCc2nc(C3(c4ccccc4)CC3)[nH]c(=O)c2C1)C(F)(F)c1cccc(-c2cccc(OC(F)(F)F)c2)c1 [58-5]
> 7.30	> 8.00	CC(C)(C)c1cccc(-c2cccc(C(F)(F)C(=O)N3CCCc4nc(C5(c6ccccc6)CC5)[nH]c(=O)c4C3)c2)c1 [58-2]
> 7.30	> 8.00	CC(C)c1cncc(C2(c3nc4c(c(=O)[nH]3)CN(C(=O)[C@H](O)c3cccc(-c5cccc(C(C)(C)C)c5)c3)CCC4)CC2)c1 [55-6]
> 7.30	> 8.00	O=C([C@H](O)c1cccc(-c2cccc(C3CC3)c2)c1)N1CCCc2nc(C3(c4ccccc4)CC3)[nH]c(=O)c2C1 [49-47]
> 7.30	> 8.52	O=C([C@H](O)c1cccc(-c2cccc(Cl)c2)c1)N1CCCc2nc(C3(c4ccccc4)CC3)[nH]c(=O)c2C1 [49-15]
> 7.30	> 8.00	O=C([C@H](O)c1cccc(-c2cccc(C(F)(F)F)c2)c1)N1CCCc2nc(C3(c4cccc(Oc5ccccc5)c4)CC3)[nH]c(=O)c2C1 [52-8]
> 7.30	> 8.00	O=C([C@H](O)c1cccc(-c2cccc(Cl)c2)c1)N1CCCc2nc(C3(c4cc(-c5ccccc5)cs4)CC3)[nH]c(=O)c2C1 [54-13]
> 7.30	> 8.00	CN(Cc1ccc(Oc2ccccc2)cc1)C(=O)c1csc(C2(c3nc4c(c(=O)[nH]3)CN(C(=O)[C@H](O)c3cccc(C(F)(F)F)c3)CCC4)CC2)c1 [59-11]
> 7.30	> 8.00	O=C([C@H](O)c1cccc(-c2ccc(Cl)c(C(F)(F)F)c2)c1)N1CCCc2nc(C3(c4cccc(Cl)c4)CC3)[nH]c(=O)c2C1 [50-23]
> 7.30	> 8.52	CC(C)c1cccc(-c2cccc([C@@H](O)C(=O)N3CCCc4nc(C5(c6ccccc6)CC5)[nH]c(=O)c4C3)c2)c1 [49-50]
> 7.30	> 8.00	CC(C)N(C(=O)c1csc(C2(c3nc4c(c(=O)[nH]3)CN(C(=O)[C@H](O)c3cccc(C(F)(F)F)c3)CCC4)CC2)c1)C1CCCCC1 [59-15]
